These results are taken from ChEMBL document CHEMBL3217578, “Synthesis of a novel thiophene derivative that induces cancer cell apoptosis through modulation of AKT and MAPK pathways” (Medchemcomm, 2012).

SMILES strings stand for the structures. ≈ marks a conversion by molar mass, not a printed value.

As a reminder, the IC50 is the point on the concentration scale where inhibition reaches its midpoint.

Test [1] can be described thus: Cytotoxicity against human HK2 cells after 72 hrs by MTT assay. To be noted: HK-2, 72 h. It is filed as cell-based. Background: Tetrazolium dyes change colour on reduction, which living cells bring about.
Test [2] in a line: Cytotoxicity against human MG63 cells after 72 hrs by MTT assay. It is filed as functional, cell-based. The note with it: MG-63, 72 h.
The nature of test [3]: Cytotoxicity against human HeLa 229 cells after 72 hrs by MTT assay. It is filed as functional, cell-based. To be noted: HeLa 229, 72 h.
The subject of test [4] is PC-3. The test is described as follows: Cytotoxicity against human PC3 cells after 72 hrs by MTT assay. It is filed as functional, cell-based. The note with it: PC-3, 72 h.
The subject of test [5] is A-375. The test can be described thus: Cytotoxicity against human A375 cells after 72 hrs by MTT assay. It is filed as functional, cell-based. The note with it: A-375, 72 h.
Test [6] can be described thus: Cytotoxicity against mouse Neuro2a cells after 72 hrs by MTT assay. It is filed as functional, cell-based. To be noted: N2a.

In the case of `O=C(CCC(=O)c1cccs1)c1cccs1`, the IC50 in test [1] was over 400 µg/mL; in test [2], 366 µg/mL (≈ 1460 µM); in test [3] it was over 400 µg/mL; in test [4], over 400 µg/mL; in test [5], 115 µg/mL (≈ 459 µM); in test [6], 343 µg/mL (≈ 1370 µM).
